pIC50: −log10 of the molar value. One block for each molecule: values may come before it. Calls of active or inactive are those of the source. The calls are words filed in the database; no cut-off is given here.
Tests used:
[1] = system: RAW264.7; experiment: Antiinflammatory activity in LPS-induced mouse RAW264.7 cells assessed as inhibition of NO production at 20 uM pretreated for 1 hr followed by LPS stimulation and measured after 24 hrs by griess reagent based assay relative to control; type: functional; details: time 25 hrs
[2] = system: RAW264.7; experiment: Antiinflammatory activity in LPS-induced mouse RAW264.7 cells assessed as inhibition of NO production pretreated for 1 hr followed by LPS stimulation and measured after 24 hrs by griess reagent based assay; type: functional, cell-based
[3] = Inhibition of TNF-alpha production in LPS-induced mouse RAW264.7 cells pretreated for 1 hr followed by LPS stimulation and measured after 24 hrs by ELISA; type: functional, cell-based
[4] = Inhibition of IL-6 production in LPS-induced mouse RAW264.7 cells pretreated for 1 hr followed by LPS stimulation and measured after 24 hrs by ELISA; type: functional, cell-based
[5] = Inhibition of IL-1beta production in LPS-induced mouse RAW264.7 cells pretreated for 1 hr followed by LPS stimulation and measured after 24 hrs by ELISA; type: functional, cell-based
[6] = system: Mus musculus; experiment: Antiinflammatory activity in ICR mouse model of xylene-induced auricle edema assessed as average weight of left ear at 20 mg/kg, IG pretreated for 1 hr followed by xylene addition and measured after 1 hr (reference value: 6.9 +/- 0.7 mg); type: functional; details: time 2 hrs
[7] = system: Mus musculus; experiment: Antiinflammatory activity in ICR mouse model of xylene-induced auricle edema assessed as average weight of right ear at 20 mg/kg, IG pretreated for 1 hr followed by xylene addition and measured after 1 hr (reference value: 11.5 +/- 2.1 mg); type: functional; details: time 2 hrs
[8] = system: Mus musculus; experiment: Antiinflammatory activity in ICR mouse model of xylene-induced auricle edema assessed as swelling degree at 20 mg/kg, IG pretreated for 1 hr followed by xylene addition and measured after 1 hr (reference value: 4.6 +/- 2 mg); type: functional; details: time 2 hrs
[9] = system: Mus musculus; experiment: Antiinflammatory activity in ICR mouse model of xylene-induced auricle edema assessed as inhibition rate of ear swelling at 20 mg/kg, IG pretreated for 1 hr followed by xylene addition and measured after 1 hr relative to control; type: functional; details: po, time 2 hrs
[10] = system: RAW264.7; experiment: Antiinflammatory activity in LPS-induced mouse RAW264.7 cells assessed as inhibition of NO production incubated for 24 hrs in presence of LPS by griess reagent based assay; type: functional, cell-based; details: RAW264.7, 24 h
[11] = Inhibition of TNF-alpha production in LPS-induced mouse RAW264.7 cells incubated for 24 hrs in presence of LPS by ELISA; type: functional, cell-based; details: RAW264.7, 24 h
[12] = Inhibition of IL-6 production in LPS-induced mouse RAW264.7 cells incubated for 24 hrs in presence of LPS by ELISA; type: functional, cell-based; details: RAW264.7, 24 h
[13] = Inhibition of IL-1beta production in LPS-induced mouse RAW264.7 cells incubated for 24 hrs in presence of LPS by ELISA; type: functional, cell-based; details: RAW264.7, 24 h
[14] = system: Mus musculus; experiment: Antiinflammatory activity in ICR mouse model of xylene-induced ear edema assessed as edema inhibition rate at 25 mg/kg, po pretreated for 1 hr followed by xylene addition and measured after 0.5 hr relative to control; type: functional; details: time 1.5 hrs
[15] = Cytotoxicity against mouse RAW264.7 cells incubated for 24 hrs by MTT assay; type: toxicity, cell-based
[16] = system: HEK-293T; experiment: Inhibition of NO production in HEK293T cells expressing iNOS assessed as effect on iNOS dimerization at 0.1 to 10 uM measured after 24 hrs by griess reagent based assay; type: functional, cell-based; details: Homo sapiens, dose 0.1-10 µM
[17] = system: RAW264.7; experiment: Antiinflammatory activity in LPS-induced mouse RAW264.7 cells assessed as inhibition of NO production by measuring downregulation of iNOS protein expression at 0.5 to 10 uM pretreated for 2 hr followed by LPS stimulation and measured after 24 hrs by Western blot analysis; type: functional, cell-based; details: dose 0.5-10 µM, time 26.0 hrs
[18] = system: Mus musculus; experiment: Antiinflammatory activity in ICR mouse model of xylene-induced auricle edema assessed as average weight of left ear at 40 mg/kg, IG pretreated for 1 hr followed by xylene addition and measured after 1 hr (reference value: 6.9 +/- 0.7 mg); type: functional; details: time 2 hrs
[19] = system: Mus musculus; experiment: Antiinflammatory activity in ICR mouse model of xylene-induced auricle edema assessed as average weight of right ear at 40 mg/kg, IG pretreated for 1 hr followed by xylene addition and measured after 1 hr (reference value: 11.5 +/- 2.1 mg); type: functional; details: time 2 hrs
[20] = system: Mus musculus; experiment: Antiinflammatory activity in ICR mouse model of xylene-induced auricle edema assessed as swelling degree at 40 mg/kg, IG pretreated for 1 hr followed by xylene addition and measured after 1 hr (reference value: 4.6 +/- 2 mg); type: functional; details: time 2 hrs
[21] = system: Mus musculus; experiment: Antiinflammatory activity in ICR mouse model of xylene-induced auricle edema assessed as inhibition rate of ear swelling at 40 mg/kg, IG pretreated for 1 hr followed by xylene addition and measured after 1 hr relative to control; type: functional; details: po, time 2 hrs
[22] = system: RAW264.7; experiment: Antiinflammatory activity in LPS-induced mouse RAW264.7 cells assessed as inhibition of NO production by measuring downregulation of iNOS protein expression at 2 to 8 uM pretreated for 2 hr followed by LPS stimulation and measured after 24 hrs by Western blot analysis; type: functional, cell-based; details: dose 2-8 µM, time 26.0 hrs
[23] = system: RAW264.7; experiment: Inhibition of NFkappaB signaling pathway in LPS-induced mouse RAW264.7 cells assessed as reduction in IkappaBalpha phosphorylation pretreated for 2 hrs followed by LPS stimulation and measured after 10 mins by Western blot analysis; type: cell-based; details: dose 0.5-2 µM, time 130.0 min

pIC50 [2]: 4.68
pIC50 [3]: 4.91
pIC50 [4]: 4.86
pIC50 [5]: 4.84
pIC50 [10]: 4.75
pIC50 [11]: 4.39
pIC50 [12]: 4.44
pIC50 [13]: 4.75
SMILES: Cc1ccc(-c2cc(C(F)(F)F)nn2-c2ccc(S(N)(=O)=O)cc2)cc1 [CELECOXIB]
inhibition at 20 µM [1]: 62.4%
Activity [6]: 8.3 mg
Activity [7]: 11.6 mg
Activity [8]: 3.4 mg
inhibition in vivo at 20 mg/kg [9]: 27.4%
inhibition in vivo at 25 mg/kg [14]: 30.9%

pIC50 [3]: 4.51
pIC50 [4]: 4.31
pIC50 [5]: 4.18
SMILES: COc1ccc2[nH]c(=O)oc2c1 [COIXOL]
inhibition at 20 µM [1]: 7.4%
IC50 at 24 h [15]: > 100 µM

SMILES: COc1ccc2c(c1)oc(=O)n2CCNC(=O)/C=C/c1ccc(C)o1
inhibition at 20 µM [1]: 43.2%
IC50 at 24 h [15]: > 100 µM

SMILES: COc1ccc2c(c1)oc(=O)n2CCNC(=O)/C=C/c1ccccc1Cl
inhibition at 20 µM [1]: 10.7%
IC50 at 24 h [15]: > 100 µM

SMILES: COc1ccc2c(c1)oc(=O)n2CCNC(=O)/C=C/c1cc2ccccc2o1
inhibition at 20 µM [1]: 35.1%
IC50 at 24 h [15]: > 100 µM

SMILES: COc1ccc2c(c1)oc(=O)n2CCNC(=O)/C=C/c1cccc(Cl)c1
inhibition at 20 µM [1]: 5.2%
IC50 at 24 h [15]: > 100 µM

SMILES: COc1ccc2c(c1)oc(=O)n2CCNC(=O)/C=C/c1ccoc1
inhibition at 20 µM [1]: 30.3%
IC50 at 24 h [15]: > 100 µM

pIC50 [2]: 5.62
pIC50 [3]: 5.12
pIC50 [4]: 5.06
pIC50 [5]: 4.94
SMILES: COc1ccc2c(c1)oc(=O)n2CCNC(=O)/C=C/c1ccco1
inhibition at 20 µM [1]: 88.4%
IC50 at 24 h [15]: > 100 µM
inhibition [16]: inactive
Activity [17]: Active
Activity [6]: 9.5 mg
Activity [18]: 8.1 mg
Activity [7]: 12.7 mg
Activity [19]: 11 mg
Activity [8]: 3.2 mg
Activity [20]: 3 mg
inhibition in vivo at 20 mg/kg [9]: 30.9%
inhibition in vivo at 40 mg/kg [21]: 35.3%

pIC50 [2]: 6.10
pIC50 [3]: 4.96
pIC50 [4]: 4.99
pIC50 [5]: 4.93
SMILES: COc1ccc2c(c1)oc(=O)n2CCNC(=O)/C=C/c1ccc([N+](=O)[O-])o1
inhibition at 20 µM [1]: 105%
IC50 at 24 h [15]: 38.8 µM
inhibition [16]: inactive
Activity [22]: Active
inhibition [23]: Dose-Dependent Effect
Activity [6]: 7.2 mg
Activity [18]: 8.5 mg
Activity [7]: 9.7 mg
Activity [19]: 10.5 mg
Activity [8]: 2.4 mg
Activity [20]: 2 mg
inhibition in vivo at 20 mg/kg [9]: 47.1%
inhibition in vivo at 40 mg/kg [21]: 56.6%

pIC50 [2]: 4.59
SMILES: COc1ccc2c(c1)oc(=O)n2CCNC(=O)/C=C/c1cc(OC)c(OC)c(OC)c1
inhibition at 20 µM [1]: 51.1%
IC50 at 24 h [15]: > 100 µM

SMILES: O=C(/C=C/c1ccco1)NCCn1c(=O)oc2ccccc21
inhibition at 20 µM [1]: 63.2%
IC50 at 24 h [15]: > 100 µM

SMILES: COc1ccc2c(c1)oc(=O)n2CCNC(=O)/C=C/c1ccc(Br)o1
inhibition at 20 µM [1]: 25.8%
IC50 at 24 h [15]: > 100 µM

SMILES: COc1ccc2oc(=O)n(CCNC(=O)/C=C/c3ccco3)c2c1
inhibition at 20 µM [1]: 56.2%
IC50 at 24 h [15]: > 100 µM

SMILES: COc1ccc2c(c1)oc(=O)n2CCNC(=O)/C=C/c1cccs1
inhibition at 20 µM [1]: 36.1%
IC50 at 24 h [15]: > 100 µM

SMILES: COc1ccc2c(c1)oc(=O)n2CCNC(=O)c1ccco1
inhibition at 20 µM [1]: 29.4%
IC50 at 24 h [15]: > 100 µM
